The results in this text go back to patent publication US20170274006A1, “NASAL COMPOSITION COMPRISING MIXTURE OF HYALURONIC ACIDS AND SALINE SOLUTION” (SOFIBEL, priority 2014, published 2017).

For this experiment, the system named is HRV-A16. Description: Anti-viral effect: inhibition of HRV-A16 replication on human airway epithelial cell culture. The experiment is classed as cell-based, rhinovirus. The settings on record: applied one hour before infection; change in viral RNA. As for the experimental part:
The example 1 composition is tested according to the test of evaluation of the potential activity against HRV-A16 (a rhinovirus responsible for colds) on fully differentiated human airway epithelial cells culture. The compositions are first applied before infection for one hour and the replication is carried out for 4 hours. 3 rinsing steps with the formulations are carried out. The remaining is collected and the RNA is dosed after cell lysis. The same collecting step is carried out 24 hours after and the same dosing step is carried out. The percentage expressed the changes in viral RNA, resulting in the % of inhibition of HRV-A16 replication, leading to the anti-viral efficacy. The tested composition is tested against rupintrivir (a known antiviral compound, providing an almost complete response).

SMILES strings stand for the structures.

Turning to `CCOC(=O)/C=C/[C@H](C[C@@H]1CCNC1=O)NC(=O)[C@@H](CC(=O)[C@@H](NC(=O)c1cc(C)on1)C(C)C)Cc1ccc(F)cc1` [Rupintrivir], the “Inhibition (%) of HRV-A16 replication” value amounted to 99.62%.
